Measured values: US6194398A, “Phosphonate nucleotide compound” (Mitsubishi Chemical Corporation, priority 1996, dated 2001)
Read-outs that look alike come from different tables or passages of the source.

Experiments:
[1] = system: human hepatitis B virus (HBV); details: reported in literature; cited from earlier work
[2] = system: human immunodeficiency virus (HIV); details: reported in literature; cited from earlier work
[3] = system: herpes simplex virus type 1 (HSV-1); details: reported in literature; cited from earlier work
[4] = system: herpes simplex virus type 2 (HSV-2); details: reported in literature; cited from earlier work
[5] = system: Hepatitis B virus (HBV); test: HBV growth inhibition effect: HBV-DNA synthesis in HB611 cells, Southern blotting; assay type: cell-based; details: read-out: 50% inhibitory concentration for HBV-DNA synthesis
Description: Hepatitis B virus (HBV) growth inhibition effect
HBV growth inhibition effect was measured in accordance with a known method (K. Ueda et al., Virology, 169, 213-216 (1989)).
(§1) A total of 2×10^4 cells of HB611 (a HBV-producing recombinant human hepatoma cell strain) were cultured at 37° C. in Dulbecco's ME medium containing 10% fetal bovine serum, streptomycin (100 μg/ml), penicillin (100 IU/ml) and Geneticin (trade name, an antibiotic substance manufactured by Life Technologies) (0.2 mg/ml). The medium was exchanged on the 2nd and 5th days of the culturing and then replaced by the medium supplemented with a sample to be tested at a final concentration of from 0.005 to 100 μM after 8, 11 and 14 days of the culturing, and DNA was recovered from the cells after 17 days of the culturing. The amount of HBV-DNA in the cells was measured by Southern blotting to calculate concentration of the compound to give 50% inhibition of HBV-DNA synthesis. Also, the concentration of each compound required for causing death to 50% of the HB611 cells was calculated. For the sake of comparison, the same test was carried out on a known compound PMFA, a dipivaloyloxymethyl ester of PMEA (Reference Example 1) and a known compound 9-[2-[bis(2,2,2-trifluoroethyl)-phosphonylmethoxy]ethyl]-2-amino-6-p-toluylthiopurine disclosed in EP 632048 (Reference Example 2). In this connection, the compound No. corresponds to the compound No. in Table 1.

[6] = Cytotoxicity: concentration causing death to 50% of HB611 cells; assay type: cell-based; details: human, read-out: 50% Cytotoxic concentration for HB611 cells
Description: as §1, with “The medium was exchanged on the 2nd and 5th days of the culturing and then replaced by the medium supplemented with a sample to be tested at a final concentration of from 0.005 to 100 μM after 8, 11 and 14 days of the culturing, and DNA was recovered from the cells after 17 days of the culturing.” left out

[7] = system: HBV; test: Inhibitory effect on HBV replication of low molecular weight fraction of liver homogenate of orally dosed mouse; assay type: cell-based, hepatitis B virus; details: 0.2 g/kg oral, liver 1 hour after administration, 1% low molecular weight fraction in HB611 medium
Description: Inhibitory effect on HBV replication of low molecular weight fraction prepared from liver homogenate of a mouse that was orally administered with a compound.
A sample to be tested was orally administered to each mouse of three animals per group in a dose of 0.2 g/kg, liver perfusion was carried out from the portal vein one hour after the administration and then the liver was excised. The thus excised liver was mixed with the same weight of physiological saline and was homogenized, and then a sample of low molecular weight fraction of the homogenate was prepared using an ultrafiltration membrane having a cutoff of 5,000 molecular weight.
A total of 2×10^4 cells of HB611 were cultured at 37° C. in Dulbecco's ME medium containing 10% fetal bovine serum, streptomycin (100 μg/ml), penicillin (100 IU/ml) and Geneticin (0.2 mg/ml). The medium was exchanged on the 2nd and 5th days of the culturing and then replaced by the medium supplemented with 1% of the just described low molecular weight fraction sample after 8, 11 and 14 days of the culturing, and DNA was recovered from the cells after 17 days of the culturing. The amount of HBV-DNA in the cells was measured by Southern blotting to evaluate inhibitory effect on HBV-DNA synthesis in the cells. […]

[8] = 408 h, HB611 cells, medium with sample on days 8, 11 and 14, DNA recovered after 17 days

In the case of Nc1nc(N)c2ncn(CCOCP(=O)(O)O)c2n1 [PMDAP, 9-(2-phosphonylmethoxy)ethyl-2,6-diaminopurine], the “effective against HBV” value [1] is listed as “effective”, the “effective against HIV” value [2] is listed as “effective” and the “effective against HSV-1” value [3] is listed as “effective”. The “effective against HSV-2” value [4] was “effective”.

For CCCSc1nc(N)nc2c1ncn2CCOCP(=O)(OCC(F)(F)F)OCC(F)(F)F [Compound 3, 2-amino-9-[2-[bis(2,2,2-trifluoroethyl)phosphonylmethoxy]ethyl]-6-n-propylthiopurine], the IC50 [5, 8] was 0.02 µM, the CC50 [6] was over 1000 µM and the “% inhibition of HBV-DNA synthesis” value [7] was 49%.

With CC(C)(C)C(=O)OCOP(=O)(COCCn1cnc2c(N)ncnc21)OCOC(=O)C(C)(C)C [Ref. Ex. 1] the IC50 ([5]; HB611, 408 h) was 1.08 µM and the CC50 [6] was 17.7 µM.

For CC(C)Sc1nc(N)nc2c1ncn2CCOCP(=O)(OCC(F)(F)F)OCC(F)(F)F [Compound 4, 2-amino-9-[2-[bis(2,2,2-trifluoroethyl)phosphonylmethoxy]ethyl]-6-i-propylthiopurine], the IC50 [5, 8] was 0.07 µM and the CC50 [6] was over 1000 µM.

In the case of CCCSc1nc(N)nc2c1ncn2CCOCP(=O)(O)O [Ref. Ex. 3, 2-amino-9-(2-phosphonylmethoxyethyl)-6-n-propylthiopurine], the “% inhibition of HBV-DNA synthesis” value [7] is reported as 17%.

In the case of Nc1ncnc2c1ncn2CCOCP(=O)(O)O [PMEA, 9-(2-phosphonylmethoxy)ethyladenine], the “effective against HBV” value [1] is given as “effective”, the IC50 ([5]; HB611, 408 h) is given as 0.3 µM and the “effective against HIV” value [2] is given as “effective”. For the same compound, the “effective against HSV-1” value [3] was “effective”, the “effective against HSV-2” value [4] was “effective” and the CC50 [6] was 334 µM.

Compound CCSc1nc(N)nc2c1ncn2CCOCP(=O)(OCC(F)(F)F)OCC(F)(F)F [Compound 2, 2-amino-9-[2-[bis(2,2,2-trifluoroethyl)phosphonylmethoxy]ethyl]-6-ethylthiopurine] has an IC50 [5, 8] of 0.06 µM and a CC50 [6] of over 1000 µM.

Cc1ccc(Sc2nc(N)nc3c2ncn3CCOCP(=O)(OCC(F)(F)F)OCC(F)(F)F)cc1 [Ref. Ex. 2, 9-[2-[bis(2,2,2-trifluoroethyl)-phosphonylmethoxy]ethyl]-2-amino-6-p-toluylthiopurine] showed an IC50 [5, 8] of 0.06 µM.
